Assay results from ChEMBL document CHEMBL1128787, “Design of a new selective cysteine protease inactivator and its mechanistic implications” (Bioorg Med Chem Lett, 1995).

How the values were obtained:
Papain [1] = molecular target: T1, Papain (Carica papaya, UniProt P00784); test: Kinetic parameter (Ki 1/min) was evaluated for the inactivation of papain
T1 sequence (P00784 whole entry): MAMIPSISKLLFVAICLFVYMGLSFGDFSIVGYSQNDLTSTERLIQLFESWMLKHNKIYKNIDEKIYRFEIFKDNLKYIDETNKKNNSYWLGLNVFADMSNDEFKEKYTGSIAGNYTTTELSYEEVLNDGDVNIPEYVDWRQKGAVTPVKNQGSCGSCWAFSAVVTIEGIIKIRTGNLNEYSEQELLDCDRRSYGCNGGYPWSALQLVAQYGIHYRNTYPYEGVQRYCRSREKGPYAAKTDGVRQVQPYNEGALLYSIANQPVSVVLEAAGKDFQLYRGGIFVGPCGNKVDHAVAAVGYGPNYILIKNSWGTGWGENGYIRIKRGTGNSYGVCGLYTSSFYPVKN

Cathepsin B [2] = molecular target: T2, Cathepsin B (Homo sapiens, UniProt P07858); test: Kinetic parameter (Ki mM) was evaluated for the inactivation of cathepsin B
Cathepsin B [3] = molecular target: T2, Cathepsin B; test: Kinetic parameter (kinact 1/min) was evaluated for the inactivation of cathepsin B
Papain [4] = molecular target: T1, Papain; test: Kinetic parameter (Ki mM) was evaluated for the inactivation of papain

**Q.** How did the Ki (Papain [1]) turn out when `O=C(N[C@@H](Cc1ccccc1)[C@H]1CO1)OCc1ccccc1` was run?
**A.** 0.208 min⁻¹

**Q.** And the Ki (Cathepsin B [2])?
**A.** 367 µM

**Q.** What about the kinact (Cathepsin B [3]) of the same molecule?
**A.** 0.087 min⁻¹

**Q.** What about the Ki (Papain [4]) of the same molecule?
**A.** 574 µM
